From the supplement of paper PMC10307832

How the values were obtained:
Assay in all cases: relative viability (nuclei count vs DMSO), 5 days (fraction); higher = more cells survive
[1] = compound: CC1=CC(=NN1)NC2=CC(=NC(=N2)/C=C/C3=CC=CC=C3)N4CCN(CC4)C + CC(=O)Nc1cccc(-n2c(=O)n(C3CC3)c(=O)c3c(Nc4ccc(I)cc4F)n(C)c(=O)c(C)c32)c1 [Trametinib] (partner 0.02 µM)
Procedure, shortened: (§1)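 Lung cancer cell lines in 1536-well plates got either a single drug or a fixed anchor-drug dose together with five library-drug doses (not always all listed) in √10 steps, by pin tool, on the day after seeding. Nuclei were counted after 5 days, and relative viability is the treated-to-vehicle ratio of nuclei counts. Values are medians of duplicate plates.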

[2] = compound: CC1=CC(=NN1)NC2=CC(=NC(=N2)/C=C/C3=CC=CC=C3)N4CCN(CC4)C + Cc1nc(NC(=O)N2CCC[C@H]2C(N)=O)sc1-c1ccnc(C(C)(C)C(F)(F)F)c1 [Alpelisib] (partner 2 µM)
Procedure, shortened: as §1

[3] = compound: COC1=CC(c2cc3ccccc3[nH]2)=N/C1=C\c1[nH]c(C)cc1C [Obatoclax] + Cc1nc(Nc2ncc(C(=O)Nc3c(C)cccc3Cl)s2)cc(N2CCN(CCO)CC2)n1 [Dasatinib] (partner 0.075 µM)
Procedure, shortened: as §1

[4] = compound: CC(C)C[C@H](NC(=O)[C@H](Cc1ccccc1)NC(=O)c1cnccn1)B(O)O [Bortezomib] + O=C(CCCCCCC(=O)Nc1ccccc1)NO [Vorinostat] (partner 1 µM)
Procedure, shortened: as §1

Cell Line	relative viability ([1]; first compound 0.08 µM)	relative viability ([1]; first compound 0.253 µM)	relative viability ([1]; first compound 0.8 µM)	relative viability ([1]; first compound 2.53 µM)	relative viability ([1]; first compound 8 µM)	relative viability ([2]; first compound 0.08 µM)	relative viability ([2]; first compound 0.253 µM)	relative viability ([2]; first compound 0.8 µM)	relative viability ([2]; first compound 2.53 µM)	relative viability ([2]; first compound 8 µM)	relative viability ([3]; first compound 0.01 µM)	relative viability ([3]; first compound 0.03162 µM)	relative viability ([3]; first compound 0.1 µM)	relative viability ([3]; first compound 0.3162 µM)	relative viability ([3]; first compound 1 µM)	relative viability ([4]; first compound 0.0002 µM)	relative viability ([4]; first compound 0.000632 µM)	relative viability ([4]; first compound 0.002 µM)	relative viability ([4]; first compound 0.006325 µM)	relative viability ([4]; first compound 0.02 µM)
NCI-H520	0.758	0.531	0.543	0.12	0.111	0.891	0.937	0.892	0.498	0.166	0.196	0.214	0.205	0.22	0.194	0.825	0.713	0.177	0.15	0.138
NCI-H596	0.846	1.07	0.839	0.4	0.216	0.5	0.577	0.565	0.367	0.121	0.618	0.475	0.464	0.502	0.394	0.506	0.614	0.365	0.219	0.173
NCI-H647	0.504	0.282	0.377	0.109	0.0926	0.927	1.11	0.782	0.05	0.0332	0.258	0.164	0.149	0.0862	0.0719	0.492	0.583	0.0536	0.0218	0.0184
NCI-H661	0.593	0.478	0.628	0.256	0.242	0.578	0.749	0.94	0.455	0.197	0.875	0.846	0.427	0.762	0.4	0.747	0.74	0.758	0.269	0.295
NCI-H727	0.355	0.347	0.429	0.347	0.285	0.586	0.54	0.529	0.377	0.167	0.438	0.287	0.512	0.39	0.348	1.29	1.06	1.36	1.1	1.02
NCI-H838	0.526	0.541	0.44	0.119	0.12	1.02	1.13	0.884	0.749	0.139	0.298	0.25		0.277	0.226	0.683	0.752	0.676	0.157	0.144
NCI-H1355	0.457	0.435	0.415	0.334	0.151	0.863	0.859	0.683	0.605	0.192	0.836	0.675	0.538	0.68	0.535	0.632	0.657	0.696	0.416	0.121
NCI-H1395	0.964	1.03	0.975	0.659	0.263	1	1.07	1.03	0.602	0.289	0.417	0.416	0.399	0.412	0.432	0.762	0.547	0.515	0.301	0.306
